Results on 6 molecules are retold here after patent US10640545B2 (THE GOVERNORS OF THE UNIVERSITY OF ALBERTA, priority 2017, dated 2020).

Where a SMILES comes first, the peptide text is derived from it. [ ]: non-standard residue; d: D form. Phe(4-Br) = N[C@@H](Cc1ccc(Br)cc1)C(=O)O; Nle = CCCC[C@H](N)C(=O)O; Aib = CC(C)(N)C(=O)O

Data set [1] addresses NEP (Homo sapiens, UniProt P08473). The experiment in a line: Neprilysin degradation assay (LC-MS, quantitative). The following applies: rhNEP, 37° C., up to 72 h, LC-MS. The protocol:
(§1) This experiment compared the in vitro NEP stability of the Arg/Leu peptides of the embodiments to native apelin isoforms and their A2 substituted counterparts. Peptides were incubated with recombinant human NEP (rhNEP, Sino Biological) at 37° C. for up to 72 h, and the extent of degradation was analyzed via LC-MS because of the overlapping elution patterns of peptide fragments. […] (McKinnie, S. M. K., et al. ChemBioChem: 17, 1495-1498 (2016)). […] (Dion, N., et al., Biochem. J.: 311, 623-627 (1995); Bateman Jr., R. C., et al., J. Biol. Chem.: 264, 6151-6157 (1989); McMurray, J. J. et al., J. Med.: 371, 993-1004 (2014)).
(§2) Apelin peptides were dissolved in Milli-Q water (1 mM). Recombinant human neprilysin (rhNEP, Sino Biological) was reconstituted in Tris buffer (100 mM Tris, 100 mM NaCl, 10 μM ZnCl2, pH 7.5). To initiate the assay, rhNEP was diluted in Tris buffer (3.1 nM final concentration), and preincubated at 37° C. for 10 minutes prior to the addition of 5 μL of apelin peptide (1 mM) and 1.5 μL internal standard dansyl-Tyr-Val-Gly-OH (1 mM). Aliquots (10 μL) were removed at 0, 1, 4, 24, and 72 h, quenched with 0.1 M EDTA (10 μL), diluted to 100 μL with Milli-Q water and analyzed by LC-MS. Assays were performed in triplicate (n=3) for each time point. Integrated peak areas of the parent apelin peptide and internal standard derived from LC-MS analyses, were extracted using Mass Hunter software (version B.04.00) and compared in positive extracted ion count modus (+EIC, extracted-ion chromatogram). […] (apelin:dansyl-YVG), to the same ratio at the different assay time points. The decrease in apelin:dansyl-YVG ratio was converted to a percentage of cleaved peptide over time.
(§3) The extent of degradation was analyzed via LC-MS because of the overlapping elution patterns of peptide fragments (NEP).
(§4) Native apelin-17 (2) and apelin peptides 5, 54, 56, 57, 58 and 59 were dissolved in Milli-Q water (1 mM). Recombinant human neprilysin (rhNEP, Sino Biological) was reconstituted in Tris buffer (100 mM Tris, 100 mM NaCl, 10 μM ZnCl2, pH 7.5). To initiate the assay, rhNEP was diluted in Tris buffer (3.1 nM final concentration) and preincubated at 37° C. for 10 min prior to the addition of 5 μL of apelin peptide (1 mM) and 1.5 μL of internal standard dansyl-Tyr-Val-Gly-OH (1 mM). Aliquots (10 μL) were removed at 0, 1, 4, 24, and 72 h, quenched with 0.1 M EDTA (10 μL), diluted to 100 μL with Milli-Q water, and analyzed by LC-MS. Assays were performed in triplicate (n=3) for each time point. Integrated peak areas of the parent apelin peptide and internal standard derived from LC-MS analyses were extracted using Mass Hunter software (version B.04.00) and compared in positive extracted ion count modus (+EIC). The extent of proteolysis was determined by comparing the initial (0 h) ratio of the integrated extracted ions of the parent apelin peptide to the internal dansyl-YVG standard (apelin/dansyl-YVG) to the same ratio at the different assay time points. The decrease in apelin/dansyl-YVG ratio was converted to a percentage of cleaved peptide over time.

The target in data set [2] is neprilysin (NEP) (Homo sapiens, UniProt P08473). The data set can be described thus: in vitro. As to conditions: human, pH 7.5. The protocol:
as §1, §2, §3, §4

For data set [3], the target named is Human plasma kallikrein KLKB1 (Homo sapiens, UniProt P03952). The data set can be described thus: Plasma kallikrein KLKB1 qualitative cleavage assay (MALDI-TOF). The protocol:
Native apelin-17 (2) and apelin peptides 5, 56, 57, 58 and 59 were dissolved in Milli-Q water (1 mM). Human plasma kallikrein KLKB1 were each reconstituted in Tris buffer (100 mM TrisHCl, 10 mM CaCl2), 150 mM NaCl) and diluted with Tris buffer (50 mM TrisHCl, 250 mM NaCl) to give a KLKB1 concentration of […]. The KLKB1 enzyme was then preincubated at 37° C. for 10 minutes prior to the addition of 5 μL of apelin peptide (1 mM). Aliquots (1 μL) were taken at 1, 2, 4, 6, 12, 24, 36, and 48 hours and analyzed with MALDI-TOF mass spectrometry to qualitatively determine the time point at which degradation products could be observed (Table 4).

The target in data set [4] is T1, KLKB1 (plasma kallikrein) (Homo sapiens, UniProt P03952).
T1 construct: purchased Novoprotein
The experiment in a line: In vitro KLKB1 stability (half-life). The class given is in vitro ADME. As to conditions: human.

A short description of data set [5]: in vitro. As to conditions: human, plasma.
Data set [6] addresses KLKB1 (Homo sapiens, UniProt P03952). The experiment in a line: Kinetic parameters for KLKB1 cleavage. The class given is biochemical. Details: purchased Novoprotein. As to conditions: enzyme KLKB1.
Data set [7] has as its system Angiotensin converting enzyme 2 (ACE2). The data set can be described thus: in vitro and in vivo. The following applies: cited from earlier work.
Data set [8] relates to recombinant human neprilysin (rhNEP, Sino Biological). The experiment in a line: rhNEP diluted in Tris buffer (100 mM Tris, 100 mM NaCl, 10 μM ZnCl2, pH 7.5), 3.1 nM final concentration. As to conditions: 37° C., up to 72 h.
Data set [9] deals with KLKB1 (rhKLKB1, Novoprotein). The data set can be described thus: Human plasma kallikrein KLKB1 in Tris buffer, KLKB1 concentration of 2 ng/pL. As to conditions: 37° C., up to 48 hours.

Sequence of KLKB1 (P03952 20-638): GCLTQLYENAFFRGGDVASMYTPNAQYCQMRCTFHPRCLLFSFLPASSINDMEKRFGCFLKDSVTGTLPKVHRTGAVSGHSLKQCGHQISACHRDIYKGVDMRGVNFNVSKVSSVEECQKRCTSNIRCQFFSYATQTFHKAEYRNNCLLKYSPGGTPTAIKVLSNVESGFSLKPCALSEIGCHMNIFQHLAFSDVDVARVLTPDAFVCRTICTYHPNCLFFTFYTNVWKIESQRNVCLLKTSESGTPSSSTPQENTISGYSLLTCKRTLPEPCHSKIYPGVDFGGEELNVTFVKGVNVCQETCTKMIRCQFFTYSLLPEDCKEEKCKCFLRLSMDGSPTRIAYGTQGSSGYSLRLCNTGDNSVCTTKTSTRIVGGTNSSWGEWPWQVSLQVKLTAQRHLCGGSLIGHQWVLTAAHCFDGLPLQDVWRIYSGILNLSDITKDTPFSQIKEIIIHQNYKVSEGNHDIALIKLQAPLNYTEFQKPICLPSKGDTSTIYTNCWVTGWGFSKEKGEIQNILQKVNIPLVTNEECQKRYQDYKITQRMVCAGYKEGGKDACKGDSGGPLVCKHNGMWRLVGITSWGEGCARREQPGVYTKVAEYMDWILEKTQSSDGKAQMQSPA
Sequence of NEP (P08473 whole entry, the tested form may be a part, canonical isoform): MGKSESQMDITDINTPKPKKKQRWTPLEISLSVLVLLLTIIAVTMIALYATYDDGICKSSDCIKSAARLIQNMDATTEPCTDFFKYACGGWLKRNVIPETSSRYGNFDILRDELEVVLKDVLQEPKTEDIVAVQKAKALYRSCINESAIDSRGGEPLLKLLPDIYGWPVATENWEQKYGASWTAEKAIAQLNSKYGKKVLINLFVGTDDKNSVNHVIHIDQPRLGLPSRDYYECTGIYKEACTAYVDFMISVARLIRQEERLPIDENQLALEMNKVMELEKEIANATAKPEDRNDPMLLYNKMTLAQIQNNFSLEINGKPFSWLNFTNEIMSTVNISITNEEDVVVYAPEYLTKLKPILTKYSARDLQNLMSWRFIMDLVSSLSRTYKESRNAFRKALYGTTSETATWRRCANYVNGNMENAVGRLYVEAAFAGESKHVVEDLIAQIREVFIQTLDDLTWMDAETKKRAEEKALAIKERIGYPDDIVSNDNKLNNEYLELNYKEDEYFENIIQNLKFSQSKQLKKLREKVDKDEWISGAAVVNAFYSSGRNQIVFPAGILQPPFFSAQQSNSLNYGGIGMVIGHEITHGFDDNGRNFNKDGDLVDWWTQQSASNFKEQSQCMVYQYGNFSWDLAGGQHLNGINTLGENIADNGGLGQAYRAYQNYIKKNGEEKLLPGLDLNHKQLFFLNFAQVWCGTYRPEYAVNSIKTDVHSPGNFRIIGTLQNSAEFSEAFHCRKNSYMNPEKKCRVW
Sequence of neprilysin (NEP) (P08473 whole entry): as the sequence (P08473 whole entry, the tested form may be a part, canonical isoform) above
T1 sequence (P03952 20-638): as the sequence (P03952 20-638) above
Sequence of Human plasma kallikrein KLKB1 (P03952 20-638): as above

`CSCC[C@H](NC(=O)[C@@H]1CCCN1C(=O)CNC(=O)[C@H](CCCCN)NC(=O)[C@H](Cc1cnc[nH]1)NC(=O)[C@H](CO)NC(=O)[C@H](CC(C)C)NC(=O)[C@H](CCCNC(=N)N)NC(=O)[C@@H]1CCCN1C(=O)[C@H](CCCNC(=N)N)NC(=O)[C@@H]1CCC(=O)N1)C(=O)N1CCC[C@H]1C(=O)N[C@@H](Cc1ccccc1)C(=O)O` [Peptide 1, reference compound]: in data set [1], the “in vitro NEP proteolytic stability (in words)” value is “degraded by NEP at rates comparable to those previously reported”.

Regarding `CCCC[C@H](NC(=O)[C@@H]1CCCN1C(=O)CNC(=O)[C@H](CCCCN)NC(=O)[C@H](Cc1c[nH]cn1)NC(=O)[C@H](CO)NC(=O)[C@H](CC(C)C)NC(=O)[C@H](CCCNC(=N)N)NC(=O)[C@@H]1CCCN1C(=O)[C@H](CCCNC(=N)N)NC(=O)[C@H](CCC(N)=O)NC(=O)[C@H](CCCNC(=N)N)NC(=O)[C@H](CCCNC(=N)N)NC(=O)[C@H](Cc1ccccc1)NC(=O)[C@@H](N)CCCCN)C(=O)NC(C)(C)C(=O)N[C@@H](Cc1ccc(Br)cc1)C(=O)O` [Peptide 5] (H-KFRRQRPRLSHKGP[Nle][Aib][Phe(4-Br)]-OH; C-terminus assumed), in data set [2], the half-life was 60 min. Besides, the “Degradation Onset Timepoint with KLKB1” value in data set [3] was less than 30 min. Further, the half-life in data set [4] is 42 min. In [5], this molecule returned a share remaining at 0.5 h, 80 µM of 43 ± 1% and an amount remaining at 1 h, 80 µM of 35 ± 5%. For the same molecule, in data set [6], the Km came to 30 ± 4 µM and the “kcat” value was 1.4 ± 0.2 s⁻¹.

Consider (Pyr)RPRLSHKGPMPF, for which, in data set [7], the cleaved bond result is on record as “Pro-Phe”. The not cleaved entry in [8] is on record as “C-terminal dipeptide excision was not observed”.

For KFRRQRPRLSHKGPMPF, the cleaved bond result is reported as “Pro-Phe” in [7] and “Arg3-Arg4, <30 min” in data set [9]. The not cleaved entry in [8] was “C-terminal dipeptide excision was not observed”.

For the molecule LVQPRGSRNGPGPWQGGRRKFRR-QRPRLSHKGPMPF, in data set [7], the cleaved bond entry is given as “Pro-Phe”.

In the case of “Lys-Phe-Arg-Arg-Gln-Arg-Pro-Arg-NMeLeu-Ser-His-Lys-Gly-Pro-Nle-Aib-paraBrPhe”, the cleaved bond entry in [9] is recorded as “Arg3-Arg4”; in [8] it was “Nle15-Aib16, minor”.
